Assay results taken from article PMC3498381, “Isolated Toll-like Receptor Transmembrane Domains Are Capable of Oligomerization” (PLoS ONE, 2012).
No end group written: not given here.

Assays:
[1] = test system: TLR1 TMD (functional ToxR chimera); assay: Dominant-negative (heterotypic) ToxR assay, TLR1 as dominant phenotype; assay type: cell-based; details: Miller units normalized to poly-Leu* = 1 and corrected for expression, lower = stronger interaction, N in table
Source text: (§1) Next, we investigated heterotypic interactions of the TLRs. We specifically studied TLR2, TLR1, and TLR6 because they are cell surface expressed receptors known to form functional heterodimers. To determine the ability of these three cell surface TLRs to have heterotypic interactions within its family, we studied the ability of the TLR1, TLR2, and TLR6 TMDs to interact with the TLR receptors also expressed at the cell surface; namely, TLR1, TLR2, TLR4, TLR5, TLR6, and TLR10. We monitored these interactions using a dominant-negative ToxR assay (Fig. S1B) which works by having a second TMD expressed with a non-functional ToxR* intracellular domain. This ToxR* domain is incapable of binding the ctx promoter making any interactions with this second expressed TMD unable to produce the reporter enzyme. As such, any interaction between the functional ToxR and non-functional ToxR* TMDs will result in a reduction in signal output.
(§2) Figure 3 Cell- Surface Toll-like Recptor Heterotypic Interactions. (A) A dominant-negative ToxR assay was used to study heterotypic interactions of the cell-surface TLRs. Two TLR TMDs were encoded in the FHK12 E.coli reporter strain, one with a functional ToxR domain (dominant phenotype) and one with a nonfunctional ToxR* domain (negative phenotype). Interaction between the two different TMDs leads to a reduction in signal from that seen for homotypic interactions. The TMDs for GpA, TLR1, TLR2, and TLR6 were used with the functional ToxR domain while TMDs for poly-Leucine, TMD5, integrin αIIb, TLR1, TLR2, TLR4, TLR5, TLR6, and TLR10 were used with the nonfunctional ToxR* domain. Interactions were most prominent for the TLRs known to have heterotypic interactions – TLR2-TLR1 and TLR2-TLR6. […] We also saw interaction with the same TMD further validating the homotypic interactions. […] Each dominant phenotype was done in 3 technical replicates with each negative phenotype and >6 measurements made for each replicate. Error bars depict the standard error of the mean (n- Tables S3, S5, S7, S9). Western blots staining for MBP were performed to monitor expression levels of the constructs with the upper band being functional ToxR chimeras and the lower band being nonfunctional ToxR* chimeras – (B) GpA, (C) TLR1, (D) TLR2, and (E) TLR6. Significant differences for the same dominant phenotype were determined by use of the Tukey-Kramer test.
(§3) For heterotypic interactions one plasmid containing a functional ToxR domain (200 ng) and a second plasmid containing a non-functional ToxR* domain (200 ng) were co-transformed into chemically competent FHK12 E. coli (400 µL) by incubating on ice for 30 min, heat shock at 42°C for 90 s, incubation on ice for 2 min, and addition of SOC media (1600 µL) followed by incubation with shaking for 1 h at 37°C. This transformation mixture (50 µL) was then used to spread LB-agar plates containing cholaramphenicol (30 µg/mL), kanamycin (33 µg/mL), and ampicillin (100 µg/mL) and grown overnight at 37°C. Single colonies were selected from the plates and grown in 5 mL LB media containing cholaramphenicol (30 µg/mL), kanamycin (33 µg/mL), ampicillin (100 µg/mL), and arabinose (0.0025%) overnight (16–20 h) with shaking at 37°C. Analysis of activity was monitored as described in homotypic ToxR assays. Western blotting was done in the same manner as the homotypic ToxR assay with one band appearing for the functional ToxR construct and a second band for the nonfunctional ToxR* construct. Data were normalized to poly-Leu* Miller Units and corrected for varying protein expression levels using ImageJ (NIH) as previously reported.

[2] = test system: TLR6 TMD (functional ToxR chimera); assay: Dominant-negative (heterotypic) ToxR assay, TLR6 as dominant phenotype; assay type: cell-based, E. coli; details: Miller units normalized to poly-Leu* = 1 and corrected for expression, lower = stronger interaction, N in table
Source text: as §1, §2, §3

TLR6*: TLR6 TMD chimera with nonfunctional ToxR* domain (negative phenotype) (GNRASITLLIVTIGATMLVLAVTVTSLCIYLGSLIN; also: fused to non-functional ToxR* (S87H) and maltose binding protein, ends not given here)
Mean TLR1-TMD* heterotypic interaction (ToxR signal) [1]: 0.3349 | Mean TLR6-TMD* heterotypic interaction (ToxR signal) [2]: 0.2564

TLR2*: TLR2 TMD chimera with nonfunctional ToxR* domain (negative phenotype) (GNRASALVSGMCCALFLLILLTGVLCGSLIN; cysteine pairing not given here; also: fused to non-functional ToxR* (S87H) and maltose binding protein, ends not given here)
Mean TLR1-TMD* heterotypic interaction (ToxR signal) [1]: 0.3243 | Mean TLR6-TMD* heterotypic interaction (ToxR signal) [2]: 0.2802

TLR1*: TLR1 TMD chimera with nonfunctional ToxR* domain (negative phenotype) (GNRASITLLIVTIVATMLVLAVTVTSLCSYLGSLIN; also: fused to non-functional ToxR* (S87H) and maltose binding protein, ends not given here)
Mean TLR1-TMD* heterotypic interaction (ToxR signal) [1]: 0.3722 | Mean TLR6-TMD* heterotypic interaction (ToxR signal) [2]: 0.3316
